In BindingDB's records for doi:10.7270/Q2MP51PC (Pcmd, 2008):
pIC50: −log10 of the molar value.

What follows are molecules tested against T1, Complement C1s subcomponent (Homo sapiens, UniProt P09871) (assay: concentration-response of complement C1s inhibitors – biochemical, dose response (AID 787)).
T1 sequence (P09871 whole entry): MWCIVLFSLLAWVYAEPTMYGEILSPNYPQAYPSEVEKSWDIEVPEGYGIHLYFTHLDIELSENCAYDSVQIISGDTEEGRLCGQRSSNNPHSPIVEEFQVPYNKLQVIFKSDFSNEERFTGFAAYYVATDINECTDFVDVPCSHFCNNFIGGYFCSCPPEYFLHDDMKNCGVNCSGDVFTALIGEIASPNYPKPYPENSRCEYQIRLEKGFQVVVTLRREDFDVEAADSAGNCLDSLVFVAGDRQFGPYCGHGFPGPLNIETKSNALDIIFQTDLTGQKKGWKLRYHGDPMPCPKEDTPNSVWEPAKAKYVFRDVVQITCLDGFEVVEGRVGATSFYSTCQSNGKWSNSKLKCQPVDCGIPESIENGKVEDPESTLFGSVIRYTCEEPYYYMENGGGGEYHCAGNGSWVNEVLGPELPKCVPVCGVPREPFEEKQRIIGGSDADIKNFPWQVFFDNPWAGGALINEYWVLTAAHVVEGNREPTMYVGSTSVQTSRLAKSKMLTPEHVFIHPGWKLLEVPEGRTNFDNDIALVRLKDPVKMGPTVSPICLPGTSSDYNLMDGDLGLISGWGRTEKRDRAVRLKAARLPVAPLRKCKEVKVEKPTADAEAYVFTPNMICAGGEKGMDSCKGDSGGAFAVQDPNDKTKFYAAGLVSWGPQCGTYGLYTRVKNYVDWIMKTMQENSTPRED

Structure (SMILES)	pIC50
COC(=O)c1ccccc1NC(=O)c1cc(-c2ccc(OC)c(OC)c2)on1 [2-[[5-(3,4-dimethoxyphenyl)isoxazole-3-carbonyl]amino]benzoic acid methyl ester]	< 4.30
O=C(Oc1ccc(-n2cnnn2)cc1)c1ccco1 [2-furancarboxylic acid [4-(1-tetrazolyl)phenyl] ester]	< 4.30
CSc1nc(-c2ccco2)nn1C(=O)c1ccco1 [2-furanyl-[3-(2-furanyl)-5-(methylthio)-1,2,4-triazol-1-yl]methanone]	5.31
Cc1nc2scc(-c3cccs3)c2c(=O)o1 [2-methyl-5-(2-thienyl)thieno[2,3-d][1,3]oxazin-4-one]	< 4.30
Cc1nc2sc(C(c3cccs3)N3CCN(Cc4ccccc4)CC3)c(O)n2n1 (centres undefined) [2-methyl-5-[[4-(phenylmethyl)-1-piperazinyl]-thiophen-2-ylmethyl]-6-thiazolo[3,2-b][1,2,4]triazolol]	< 4.30
O=C(COC(=O)c1cnccn1)c1ccc(OC(=O)c2ccccc2)cc1 [2-pyrazinecarboxylic acid [2-(4-benzoyloxyphenyl)-2-oxoethyl] ester]	< 4.30
CC(C)(C)c1cc(C(=O)NCc2ccccc2)ccn1 [2-tert-butyl-N-(phenylmethyl)-4-pyridinecarboxamide]	< 4.30
COc1ccc(C(=O)SC2=NCCS2)cc1OC [3,4-dimethoxybenzenecarbothioic acid S-(4,5-dihydrothiazol-2-yl) ester]	< 4.30
COc1cc(OC)cc(C(=O)Nc2ncc3c(n2)CC(C)CC3=O)c1 (centres undefined) [3,5-dimethoxy-N-(7-methyl-5-oxidanylidene-7,8-dihydro-6H-quinazolin-2-yl)benzamide]	< 4.30
CCCc1nc2ccccc2c(=O)n1-c1c(C)n(C)n(-c2ccccc2)c1=O [3-(1,5-dimethyl-3-oxo-2-phenyl-4-pyrazolyl)-2-propyl-4-quinazolinone]	< 4.30
O=C(Nc1nc(-c2cccs2)cs1)c1cccc(S(=O)(=O)N2CCCCCC2)c1 [3-(1-azepanylsulfonyl)-N-(4-thiophen-2-yl-2-thiazolyl)benzamide]	< 4.30
Cc1cc(NC(=O)c2cccc(S(=O)(=O)N3CCCCCC3)c2)n(-c2ccccn2)n1 [3-(1-azepanylsulfonyl)-N-[5-methyl-2-(2-pyridinyl)-3-pyrazolyl]benzamide]	< 4.30
CC1(C)C(c2ccccc2)=NC(c2cccnc2)N1O (centres undefined) [3-(1-hydroxy-5,5-dimethyl-4-phenyl-2H-imidazol-2-yl)pyridine]	< 4.30
COc1ccccc1CN1CCCCC1c1cccnc1 (centres undefined) [3-(1-o-anisyl-2-piperidyl)pyridine]	< 4.30
O=C(Nc1ccccn1)c1cccc(S(=O)(=O)N2CCCCC2)c1 [3-(1-piperidinylsulfonyl)-N-(2-pyridinyl)benzamide]	< 4.30
O=C(Nc1nccs1)c1cccc(S(=O)(=O)N2CCCCC2)c1 [3-(1-piperidinylsulfonyl)-N-(2-thiazolyl)benzamide]	< 4.30
O=C(Nc1nc(-c2cccs2)cs1)c1cccc(S(=O)(=O)N2CCCCC2)c1 [3-(1-piperidinylsulfonyl)-N-(4-thiophen-2-yl-2-thiazolyl)benzamide]	< 4.30
O=C(NCc1cccs1)c1cccc(S(=O)(=O)N2CCCCC2)c1 [3-(1-piperidinylsulfonyl)-N-(thiophen-2-ylmethyl)benzamide]	< 4.30
O=c1c(-c2ccco2)[n+]([O-])c2ccccc2n1OCc1ccccn1 [3-(2-furanyl)-4-oxido-1-(2-pyridinylmethoxy)-2-quinoxalin-4-iumone]	4.42
CCc1ccc(-c2cn(-c3nc(C)cc(C)n3)c(=N)o2)cc1 [3-(4,6-dimethyl-2-pyrimidinyl)-5-(4-ethylphenyl)-2-oxazolimine]	< 4.30
CC1CCN(S(=O)(=O)c2cccc(C(=O)NCc3cccs3)c2)CC1 [3-(4-Methyl-piperidine-1-sulfonyl)-N-thiophen-2-ylmethyl-benzamide]	< 4.30
CC(=O)N1CCN(C(=O)c2cccc(S(=O)(=O)Nc3ccc(C)cc3)c2)CC1 [3-(4-acetylpiperazine-1-carbonyl)-N-(4-methylphenyl)benzenesulfonamide]	< 4.30

Other lines, results leading:

pIC50	Structure (SMILES)
< 4.30	CC1CCN(S(=O)(=O)c2cccc(C(=O)Nc3nccs3)c2)CC1 [3-(4-methylpiperidin-1-yl)sulfonyl-N-(1,3-thiazol-2-yl)benzamide]
< 4.30	O=C(Nc1nccs1)c1cccc(S(=O)(=O)N2CCOCC2)c1 [3-(4-morpholinylsulfonyl)-N-(2-thiazolyl)benzamide]
< 4.30	Cc1csc(N(C(=O)c2cccc(S(=O)(=O)N(C)C)c2)c2ccccc2)n1 [3-(dimethylsulfamoyl)-N-(4-methyl-1,3-thiazol-2-yl)-N-phenyl-benzamide]
< 4.30	c1ccc(Cc2nn3c(COc4ccccc4)nnc3s2)cc1 [3-(phenoxymethyl)-6-(phenylmethyl)-[1,2,4]triazolo[3,4-b][1,3,4]thiadiazole]
< 4.30	CCn1c(=O)c(C(C)=O)nc2ccccc21 [3-acetyl-1-ethyl-2-quinoxalinone]
< 4.30	O=C(NC1=NCCS1)c1cccc(S(=O)(=O)N2CCCCC2)c1 [3-piperidinosulfonyl-N-(2-thiazolin-2-yl)benzamide]
< 4.30	c1cncc(-c2nnc3n2N=C(c2cccs2)CS3)c1 [3-pyridin-3-yl-6-thiophen-2-yl-7H-[1,2,4]triazolo[3,4-b][1,3,4]thiadiazine]
< 4.30	CCC(C)N1CC23C=CC(O2)C(C(=O)OCc2ccccc2)C3C1=O (centres undefined) [3-sec-Butyl-4-oxo-10-oxa-3-aza-tricyclo[5.2.1.0*1,5*]dec-8-ene-6-carboxylic acid benzyl ester]
< 4.30	NC(=O)C1(N2CCCCC2)CCN(C(=O)Nc2ccccc2C(F)(F)F)CC1 [4-(1-piperidinyl)-N1-[2-(trifluoromethyl)phenyl]piperidine-1,4-dicarboxamide]
< 4.30	COCCCNC(CC(=O)Nc1ccccc1C(=O)OC)C(=O)O (centres undefined) [4-(2-carbomethoxyanilino)-4-keto-2-(3-methoxypropylamino)butyric acid]
< 4.30	CCOC(=O)N1CCN(C(=O)CN(c2cccc(C)c2)S(=O)(=O)c2ccc(C)cc2)CC1 [4-[2-(3-methyl-N-(4-methylphenyl)sulfonylanilino)-1-oxoethyl]-1-piperazinecarboxylic acid ethyl ester]
< 4.30	CCCCn1c(-c2cc(Cl)ccc2OC)n[nH]c1=S [4-butyl-3-(5-chloro-2-methoxyphenyl)-1H-1,2,4-triazole-5-thione]
< 4.30	CC(C)NS(=O)(=O)c1cc(C(=O)O)ccc1Cl [4-chloranyl-3-(propan-2-ylsulfamoyl)benzoic acid]
< 4.30	O=C(Nc1nccs1)c1ccc(Cl)c(S(=O)(=O)N2CCOCC2)c1 [4-chloranyl-3-morpholin-4-ylsulfonyl-N-(1,3-thiazol-2-yl)benzamide]
< 4.30	O=C(Nc1nccs1)c1ccc(Cl)c(S(=O)(=O)N2CCCCC2)c1 [4-chloranyl-3-piperidin-1-ylsulfonyl-N-(1,3-thiazol-2-yl)benzamide]
< 4.30	O=C(Oc1ccc(Cl)cc1-n1c(O)ccc1O)c1ccco1 [4-chloro-2-(2,5-dioxo-1-pyrrolidinyl)phenyl 2-furoate]
< 4.30	CCn1c(CCn2ccnc2C)n[nH]c1=S [4-ethyl-5-[2-(2-methyl-1H-imidazol-1-yl)ethyl]-2,4-dihydro-3H-1,2,4-triazole-3-thione]
< 4.30	CCc1c(C(=O)NCc2cnn(C)c2)csc1C [4-ethyl-5-methyl-N-[(1-methyl-1H-pyrazol-4-yl)methyl]-3-thiophenecarboxamide]
< 4.30	CCOC(=O)c1sc(NC(=O)c2cc(S(=O)(=O)N3CCOCC3)ccc2C)nc1C [4-methyl-2-[(2-methyl-5-morpholinosulfonyl-benzoyl)amino]thiazole-5-carboxylic acid ethyl ester]
< 4.30	Cc1ccc(C(=O)Nc2nccs2)cc1S(=O)(=O)N1CCCCC1 [4-methyl-3-(1-piperidinylsulfonyl)-N-(2-thiazolyl)benzamide]
< 4.30	Cc1csc(NC(=O)c2ccc(C)c(S(=O)(=O)N3CCCCC3)c2)n1 [4-methyl-N-(4-methyl-1,3-thiazol-2-yl)-3-piperidin-1-ylsulfonyl-benzamide]
< 4.30	CC(=O)NC(=O)NC1CSCC1OC(C)=O (centres undefined) [4-{[(acetylamino)carbonyl]amino}tetrahydro-3-thienyl acetate]
< 4.30	CCc1ccc(C2CC(c3ccccc3Cl)Nc3nc(N)nn32)cc1 (centres undefined) [5-(2-chlorophenyl)-7-(4-ethylphenyl)-1,5,6,7-tetrahydro-[1,2,4]triazolo[1,5-a]pyrimidin-2-amine]
< 4.30	COc1ccc(CNC(=O)c2cc(-c3ccc(OC)c(OC)c3)on2)cc1 [5-(3,4-dimethoxyphenyl)-N-(4-methoxybenzyl)isoxazole-3-carboxamide]
< 4.30	CC(C)NC(=O)c1cc(-c2ccc(Br)cc2)on1 [5-(4-bromophenyl)-N-isopropyl-isoxazole-3-carboxamide]
< 4.30	Cc1ccc(-c2cc(C(=O)NCc3ccccn3)no2)cc1 [5-(4-methylphenyl)-N-(2-pyridinylmethyl)-3-isoxazolecarboxamide]
< 4.30	Cc1ccccc1S(=O)(=O)Cc1ccc(C(=O)NCc2cccnc2)o1 [5-(o-tolylsulfonylmethyl)-N-(3-pyridylmethyl)-2-furamide]
